The subject of one assay is CD-1 mice given LPS/GalN. In words: Liver histology in LPS/GalN endotoxic shock. Format: in vivo, mouse. As to the method: Serum alanine aminotransferase (ALT) activity was assayed as a marker of hepatocellular death using a commercially available kit (Infinite ALT, Sigma, St. Louis, Mo.). A portion of the liver was fixed in 10% neutral formalin, processed by standard histological techniques, stained with hematoxylin and eosin, and examined for morphological evidence of liver injury.
Sections of the mice livers were stained with hematoxylin and eosin, and photomicrographs were taken at 100× magnification.

The test system of a further assay is iNOS. In words: Western blot of iNOS in microglia enriched cultures. Format: cell-based, rat. To be noted: femto-molar DM, 30 min pretreatment, LPS. How it is done: (§1) Western blots were used to analyze possible effects of DM on iNOS and COX2 production in rat microglia enriched cultures. The cultures were prepared and treated with vehicle, OM DM, 10^−14DM, LPS alone, and LPS with different concentrations of DM. The production of iNOS (inducible nitric oxide synthenase) and COX2 (cycloxyase 2) in the culture extracts were detected by Western Blot assay. Data in FIG. 9B represent the mean±S.E.

The test system of the next assay is PGE2. In words: PGE2 release (EIA) after LPS. Format: cell-based, rat.
The subject of a further assay is TNFα. In words: Serum and liver TNFα (ELISA) in LPS/GalN endotoxic shock. Format: in vivo, mouse. As to the method: Blood was collected from the eye while the mice were anesthetized, and then perfused with saline. Perfused liver samples were collected and frozen at −70° C. The blood samples were stored at 4° C. overnight and then centrifuged at 1500×g at 4° C. for 15 min. Serum was collected and stored at −70° C. for ALT, and TNFα ELISA assays. The frozen liver samples were homogenized in 10 mg/ml cold lysis buffer (20 mM Tris, 0.25 M sucrose, 2 mM EDTA, 10 mM EGTA, 1% Triton X-100 and protein cocktail inhibitor), and then centrifuged at 35,000×g for 40 min. The supernatant was then collected for protein assay using BCA Protein Assay Reagent Kit (Prod#23227, PIERCE), and ELISA for TNFα.
The levels of TNFα in the serum and liver were determined as in Example 1.
TNFα, an important factor that plays an important role in sepsis, was studied as a mechanism of the protective effect of DM in LPS/GalN-challenge mice. DM (12.5 mg/kg, […].) was administered to mice, followed by LPS/GalN challenge 30 min later. Serum and liver TNFα level was assessed using ELISA at the indicated time points.
(In general: In an ELISA, binding on a coated surface is turned into a signal by an enzyme label.)

The subject of another assay is COX2. Put plainly: Western blot of COX2 in microglia enriched cultures. Format: cell-based, rat. To be noted: femto-molar DM, 30 min pretreatment, LPS. How it is done:
as §1
(In general: Immunoblotting shows a protein as a band on a membrane.)

In assay [1] the test system is dopaminergic neurons in PHOX^+/+ and PHOX^−/− mouse neuron-glia cultures. In words: [3H]DA uptake in neuron-glia cultures of PHOX+/+ and PHOX−/− mice. Format: cell-based. To be noted: DM 10^−14 M, LPS 10 ng/ml. As to the method: To further study the role of ROS in DM-elicited neuroprotection, neuron-glia cultures were prepared from NADPH oxidase-deficient (PHOX^−/−) and wild-type (PHOX^+/+) mice.
Neurotoxicity was assessed by DA uptake as described in Example 1. TNFα production was measured by ELISA and iROS was determined by DCFDA as in Example 5. Results are expressed as a percentage of the control culture in FIG. 7A, pg/ml in FIG. 7B, and difference from control in FIG. 7C, respectively, and are the mean±S.E.M. of five individual experiments with triplicates in each experiment. *, P<0.05 compared with LPS culture.
The rat and mouse ventral mesencephalic neuron-glia cultures were prepared as in Example 1. […] DA neurotoxicity was measured by using the [^3H] DA uptake assay as in Example 1. The data are expressed as the percent of the control cultures and are the mean±SEM. The release of TNFα was measured with a commercially available enzyme-linked immunosorbent assay kit. *P<0.05, **P<0.01, compared to control. The amount of TNFα was measured as in Example 2.

Another assay concerns primary rat microglia. Put plainly: Microglia number (CyQUANT) in microglia-enriched cultures. Format: cell-based. As to the method:
Primary rat microglia-enriched cultures were used to determine if VPA treatment affected the total number of microglia. Microglia cell number was determined as follows. Primary microglia-enriched cultures were prepared from the whole brains of 1-day-old rats as described previously. After one day in vitro were treated with the indicated concentrations of VPA (0.05, 0.1, 0.2, 0.4, 0.6, 0.8, 1.0, or 1.2 mM) for 48 h, or with 0.6 mM VPA for different times (6, 12, 24 or 48 h). […] The total number of microglia was counted by using the CyQUANT cell proliferation assay kit (Molecular Probes, Inc.).

Assay [2] has as its system neurons in neuron-enriched cultures. In words: MAP-2 / TH immunostaining morphology of neuron-enriched cultures. Format: cell-based, rat. To be noted: 7 days exposure; media conditioned 48 hours; VPA 0.6 mM. How it is done:
Neuron-enriched cultures were immunostained with MAP-2 for morphological examination. FIGS. 40A-40D show morphological features of neuron-enriched cultures were examined after incubation with vehicle (A), 0.6 mM VPA (B), ACM (C) or ACM-VPA (D) for 7 days and then immunocytostaining with MAP-2 antibody.
The immunostaining was carried out according to the following procedure. Formaldehyde (3.7%)-fixed cultures were treated with 1% hydrogen peroxide (10 min) followed by sequential incubation with blocking solution (30 min), primary antibody (overnight, 4° C.), biotinylated secondary antibody (2 hours), and ABC reagents (40 min) (Vector Laboratories, Burlingame, Calif.). The color development was achieved by the addition of 3,3′-diaminobenzidine. For morphological analysis, the images were recorded with an inverted microscope (Nikon, Tokyo, Japan) connected to a charge-coupled device camera (DAGE-MTI, Michigan City, Ind.) operated with the MetaMorph software (Universal Imaging Corporation, Downingtown, Pa.). For visual counting of TH-IR neurons, nine representative areas per well of the 24-well plate were counted under the microscope at 100× magnification.
To specifically visualize morphological changes in DA neurons, we immunostained neuron-enriched cultures with anti-TH antibody. […]

The mark [3] stands for this setting: DM 12.5 mg/kg 30 min before LPS/GalN, 1.5 and 2 hours.

As for `COc1ccc2c(c1)[C@@]13CCCC[C@H]1[C@@H](C2)N(C)CC3` [DM, d-3-methoxy-N-methylmorphinan], the “liver histology (hematoxylin and eosin)” value with CD-1 mice given LPS/GalN (100 pg/kg DM plus LPS/GalN) was “cell death is mild”; in the assay with CD-1 mice given LPS/GalN (1 μg/kg DM plus LPS/GalN) it was “hepatic congestion and cell death are obvious”; with CD-1 mice given LPS/GalN (10 mg/kg DM plus LPS/GalN), “hepatic congestion and cell death are mild”. For the same compound, the “liver pathological alterations (necrosis, apoptosis, swelling)” value in the assay on CD-1 mice given LPS/GalN (DM treatments, 12 hours after LPS/GalN) is reported as “dramatically ameliorated”. Also, in the assay with iNOS, the “protein content of iNOS” value is given as “failing to affect the protein content”. For the same compound, the “LPS-induced increase in the release of PGE2” value in the assay with PGE2 (DM 10^−5 M and 10^−14 M pretreatment) is “significantly decreased”; in the assay on PGE2 (DM 10^−10 M pretreatment), “no significant reduction”. In the assay on PGE2 (femtomolar DM after removal of LPS (20 ng/ml, 12 h), 24 h), the “PGE2 production, post treatment” value was “reduction of NO and PGE2 production”. Besides, in the assay on TNFα (setting [3]), the “liver TNFα level” value is reported as “significantly decreased TNFα level”. The “serum TNFα level” value with TNFα (setting [3]) was “significantly decreased TNFα level”. In addition, the TNFα level entry in the assay on TNFα (DM 30 min post LPS/GalN (data not shown)) is “suppression of TNFα level was also found”. In the assay with COX2, the “protein content of COX2” value is “failing to affect the protein content”. The figures for the “LPS-induced reduction of [3H]-dopamine uptake” value in assay [1] (PHOX+/+ mice) and in assay [1] (PHOX−/− mice) were “significantly attenuated this decrease” and “failed to show any protective effect”, respectively.
`CCCC(CCC)C(=O)O` [VPA, Valproic acid]: the “number of microglia, concentration dependence” value with primary rat microglia (VPA 0.2 mM to 1.2 mM, 48 h) is on record as “robust decrease in microglia number”. In addition, in the assay on primary rat microglia (VPA 0.6 mM, 6-48 h, significant effect at 24 h and 48 h), the “number of microglia, time course” value was “time-dependently decreased the number of microglia”. In addition, in the assay with primary rat microglia (VPA 0.8 mM, 48 h), the loss of microglia result is reported as “about 80%”. The “neurite outgrowth (MAP-2 immunostaining)” value in assay [2] is “Much smaller effects”.

These data come from patent US8796302B2 (priority 2004, dated 2014).
